Measurements reported in paper PMC11355195 (Life, 2024).
Converted amounts (≈) assume the structure as drawn.

Legend:
MDA-MB-436 = test: MTT cell viability, MDA-MB-436; type: cell-based, Human
Experimental: (§1) These cell lines were selected to represent distinct sub-types of breast cancer for extensive investigation. […] The medium was added with 10% heat-inactivated fetal calf serum (FCS) to supply vital growth hormones and nutrients necessary for cell proliferation. Additionally, 1% penicillin streptomycin was administered to avoid bacterial contamination, ensuring the sterility and integrity of the cell cultures. The cell cultures were maintained at 37 °C in a humidified environment containing 5% CO2. This controlled environment mimics physiological conditions in the human body, supporting optimal cell development and function. The humidified atmosphere prevents medium evaporation, while the 5% CO2 concentration maintains optimal pH values in the culture medium. These specialized circumstances and methods ensure that the breast cancer cell lines remain healthy and viable for experimental procedures, delivering dependable and reproducible results for research projects. The standard protocols followed for cultivating these cells are crucial for generating consistent and reliable data. Using well-characterized cell lines from a credible source like ATCC ensures the re-liability and comparability of the experimental outcomes.
(§2) This approach determines cell viability based on the ability of living cells to decrease MTT to a purple, water-insoluble formazan product. Cells were planted in 96-well plates at a density of 1 × 10^4 cells per well in 100 μL of complete culture media, which provides all necessary nutrients for cell growth. […] The cells were then treated with the compounds for 24, 48, and 72 h to determine the effect on cell viability over varied time intervals. Following each incubation time, 20 μL of MTT solution (at a concentration of 5 mg/mL in PBS) were applied to each well. The plates were further incubated for 4 h at 37 °C, during which time live cells decrease the MTT to formazan, creating purple crystals. At the end of the incubation, the medium containing the MTT was carefully aspirated, leaving only the formazan crystals in the bottom of the wells. […]

MDA-MB-231 = test: MTT cell viability, MDA-MB-231; type: cell-based, Human
Experimental: as §1, §2

MCF-7 = test: MTT cell viability, MCF-7; type: cell-based, Human
Experimental: as §1, §2

[1] = tested on: peripheral blood mononuclear cells (PBMC); test: MTT cell viability, PBMC (normal cell control); type: cell-based; details: MTT test, 72 h of treatment (Figure 3)
Experimental: This approach determines cell viability based on the ability of living cells to decrease MTT to a purple, water-insoluble formazan product. Cells were planted in 96-well plates at a density of 1 × 10^4 cells per well in 100 μL of complete culture media, which provides all necessary nutrients for cell growth. […] The cells were then treated with the compounds for 24, 48, and 72 h to determine the effect on cell viability over varied time intervals. Following each incubation time, 20 μL of MTT solution (at a concentration of 5 mg/mL in PBS) were applied to each well. The plates were further incubated for 4 h at 37 °C, during which time live cells decrease the MTT to formazan, creating purple crystals. At the end of the incubation, the medium containing the MTT was carefully aspirated, leaving only the formazan crystals in the bottom of the wells. To dissolve these crystals, 100 μL of DMSO were administered to each well. […] This formula quantifies the reduction in cell viability in response to the treatments compared to the control. […] Cisplatin, a known anticancer drug, was used as a reference drug at varying concentrations from 0.01 to 50 µg/mL.

ABTS scavenging activity = test: ABTS scavenging activity
From the text: With a few minor adjustments, the procedure published by Re et al., was used to evaluate the test samples’ capacity to scavenge radicals against the ABTS (2,2′-azinobis-3-ethylbenzothiazoline-6-sulphonate) radical cation.

DPPH scavenging capacity = details: 0.1 mM DPPH
Experimental: The method utilized to test the compound’s efficacy in scavenging DPPH radicals was based on protocols detailed in references, with minor changes. The test was completed in duplicate for each concentration. A solution of 0.1 mM DPPH (2,2-diphenyl-1-picrylhydrazyl) was produced, and the compounds were evaluated at different concentrations ranging from 1 to 500 µg/mL. Ascorbic acid served as the positive control with concentrations ranging from 0.01 to 300 µg/mL [35].

COX-1 = target: T1, COX-1 (Ovis aries, UniProt P05979); test: COX-1-catalyzed prostaglandin production inhibition; type: biochemical, ram
T1 construct: The COX-1 enzyme was produced from ram seminal vesicles; purchased Cayman Chemical Company, Ann Arbor, MI, USA; host or cells: ram seminal vesicles (tissue)
T1 sequence (P05979 25-600): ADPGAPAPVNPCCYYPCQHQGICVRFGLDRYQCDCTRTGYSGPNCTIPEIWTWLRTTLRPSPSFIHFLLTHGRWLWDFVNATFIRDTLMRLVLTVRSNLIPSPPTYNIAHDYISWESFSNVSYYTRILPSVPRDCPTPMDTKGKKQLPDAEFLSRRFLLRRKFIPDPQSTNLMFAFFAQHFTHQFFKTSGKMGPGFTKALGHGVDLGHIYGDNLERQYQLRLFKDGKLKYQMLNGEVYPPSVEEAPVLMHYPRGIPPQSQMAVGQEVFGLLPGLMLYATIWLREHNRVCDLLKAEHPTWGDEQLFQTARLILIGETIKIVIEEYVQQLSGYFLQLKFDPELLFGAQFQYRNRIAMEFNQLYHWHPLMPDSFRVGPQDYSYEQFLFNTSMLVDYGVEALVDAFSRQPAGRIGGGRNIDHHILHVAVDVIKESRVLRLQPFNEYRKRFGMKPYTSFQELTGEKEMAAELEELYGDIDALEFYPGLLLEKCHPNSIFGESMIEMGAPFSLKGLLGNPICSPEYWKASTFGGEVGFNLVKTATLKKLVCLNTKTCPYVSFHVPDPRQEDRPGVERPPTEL
Experimental: The COX inhibitory effects of the substances were examined using a COX-1/COX-2-catalyzed prostaglandin production test, using a modified approach by Futaki et al.. The chemicals were dissolved in 4% DMSO to a final concentration of 100 µg/mL.
In this test, one unit of COX-1 or COX-2 enzyme was suspended in a 0.1 M Tris-HCl buffer (pH 7.5) containing hematin ([…]) and phenol (2 mM) as cofactors. The COX-1 enzyme was produced from ram seminal vesicles, while COX-2 was taken from sheep placenta with a purity of 70% (both from Cayman Chemical Company, Ann Arbor, MI, USA). The reaction mixture was preincubated with either the solvent vehicle (4% DMSO) or the test solution for 2 min at 37 °C. […] Arachidonic acid, tagged with radioactive carbon ([1–14C]), serves as a substrate for the COX enzymes. The mixture was then incubated for an additional 2 min at 37 °C. […] The organic solvent phase was removed, and the PGE2 level in the remaining aqueous phase was quantified using a radioimmunoassay with a liquid scintillation counter, which measures the radioactivity (disintegrations per minute, DPM) of the [1–14C]-labeled PGE2. The percentage inhibition of COX-catalyzed prostaglandin production by the test compounds was estimated by comparing the radioactivity of the samples with the solvent vehicle controls. […]

MCF-7 cells = details: at 24 and 48 h; ref Mari et al. (2021) [78]; read-out: IC50, survival of MCF-7 cells; cited from earlier work
[2] = Oxygen radical absorbance capacity (ORAC); details: Trolox equivalents
Experimental: The ORAC (Oxygen Radical Absorbance Capacity) test was carried out using a modified version of the procedure reported by Huang et al.. This test examines the antioxidant capacity of compounds by examining their ability to neutralize oxygen radicals. The method was carried out utilizing a 96-well microplate format. First, 150 µL of fluorescein solution, produced as 8 × 10^−8 M fluorescein in 0.075 M phosphate buffer (pH 7.4), were dispersed to each well. Fluorescein is a fluorescent probe whose fluorescence lowers when it reacts with radicals. Next, 25 µL of the substance or mixture to be evaluated was added to the corresponding wells. Wells containing 25 µL of phosphate buffer served as blanks, and wells containing 25 µL of Trolox solution (from 10 to 100 µm) were utilized as standards. Control wells containing 50 µL phosphate buffer without any radicals were also added to provide a baseline. The reaction was initiated by adding 25 µL of a freshly produced solution of AAPH (2,2′-azobis(2-methylpropionamidine) dihydrochloride) at a concentration of 165.94 mM in phosphate buffer to each well, except for the control wells, at a temperature of 37 °C. AAPH creates peroxyl radicals that induce oxidative stress in the fluorescein solution, simulating free-radical attack. […] The fluorescence in-tensity of the mixture was then monitored at regular intervals for 120 min.

[3] = MTT test, 72 h of treatment (Figure 3)

Compound | IC50 Value ± SD, MDA-MB-436 (MDA-MB-436; [3]) [mg/L] | IC50 Value ± SD, MDA-MB-231 (MDA-MB-231; [3]) [mg/L] | IC50 Value ± SD, MCF-7 (MCF-7; [3]) [mg/L] | IC50 Value ± SD, PBMC [1] [mg/L] | ABTS Scavenging Activity IC50 (ABTS scavenging activity) [mg/L] | DPPH Scavenging Capacity IC50 (DPPH scavenging capacity) [mg/L] | IC50 (COX-1) [µM] | IC50 (MDA-MB-436; Homo sapiens, MDA-MB-436, 72 h, read-out: IC50 Value ± SD, MDA-MB-436) [mg/L] | IC50 (MDA-MB-231; Homo sapiens, MDA-MB-231, 72 h, read-out: IC50 Value ± SD, MDA-MB-231) [mg/L] | IC50 (MCF-7; Homo sapiens, MCF7, 72 h, read-out: IC50 Value ± SD, MCF-7) [mg/L] | IC50 (MCF-7 cells) [µM] | Oxygen Radical Absorbance Capacity [2] [mmol TE/g]
N.N.[Cl][Pt][Cl] [Cisplatin, reference compound] | 3.96 ± 0.59 | 4.60 ± 0.66 | 8.43 ± 0.92 | 25.36 ± 1.40 |  |  |  |  |  |  |  | 
O=C1O[C@H]([C@@H](O)CO)C(O)=C1O [Ascorbic acid (AA), Ascorbic acid, reference compound] |  |  |  |  | 25.20 ± 3.06 | 188.24 ± 6.46 |  |  |  |  |  | 
Cc1ccc(C(C)C)cc1O [Carvacrol, 2-methyl-5-(1-methylethyl)phenol] |  |  |  |  | 107.88 ± 4.46 |  | 470 | 9.5 ± 1.15 (≈ 63.2 µM) | 9.76 ± 0.23 (≈ 65 µM) | 5.93 ± 0.77 (≈ 39.5 µM) | 200 | 3.535 ± 0.127
